In patent US12509457B2, “Bicyclic nitrogen containing heterocycles as inhibitors of salt-induced kinase SIK2” (priority 2019, dated 2025) one finds Ki data, which are given here for 20 molecules.

Broadly, the Ki is a measure of affinity in units of concentration, obtained from inhibition or displacement.

Assay type in all cases: biochemical
One test has as its target Src (Homo sapiens, UniProt P12931). As to the kind of experiment: Src kinase assay, IMAP fluorescence polarization. The note with it: 50 or 100 μM ATP; average; read-out: Src-AVERAGE Ki. For orientation: Fluorescence polarisation rises when a labelled molecule tumbles more slowly, as on binding a larger partner.
The next test has as its target SIK1 (Homo sapiens, UniProt P57059). As to the kind of experiment: SIK1 kinase assay, IMAP fluorescence polarization. The note with it: 50 or 100 μM ATP; average; read-out: SIK1-AVERAGE Ki.
The next test deals with EPHA2 (Homo sapiens, UniProt P29317). The test is described as follows: EPHA2 kinase assay, IMAP fluorescence polarization.
Sequence of EPHA2 (P29317 24-976): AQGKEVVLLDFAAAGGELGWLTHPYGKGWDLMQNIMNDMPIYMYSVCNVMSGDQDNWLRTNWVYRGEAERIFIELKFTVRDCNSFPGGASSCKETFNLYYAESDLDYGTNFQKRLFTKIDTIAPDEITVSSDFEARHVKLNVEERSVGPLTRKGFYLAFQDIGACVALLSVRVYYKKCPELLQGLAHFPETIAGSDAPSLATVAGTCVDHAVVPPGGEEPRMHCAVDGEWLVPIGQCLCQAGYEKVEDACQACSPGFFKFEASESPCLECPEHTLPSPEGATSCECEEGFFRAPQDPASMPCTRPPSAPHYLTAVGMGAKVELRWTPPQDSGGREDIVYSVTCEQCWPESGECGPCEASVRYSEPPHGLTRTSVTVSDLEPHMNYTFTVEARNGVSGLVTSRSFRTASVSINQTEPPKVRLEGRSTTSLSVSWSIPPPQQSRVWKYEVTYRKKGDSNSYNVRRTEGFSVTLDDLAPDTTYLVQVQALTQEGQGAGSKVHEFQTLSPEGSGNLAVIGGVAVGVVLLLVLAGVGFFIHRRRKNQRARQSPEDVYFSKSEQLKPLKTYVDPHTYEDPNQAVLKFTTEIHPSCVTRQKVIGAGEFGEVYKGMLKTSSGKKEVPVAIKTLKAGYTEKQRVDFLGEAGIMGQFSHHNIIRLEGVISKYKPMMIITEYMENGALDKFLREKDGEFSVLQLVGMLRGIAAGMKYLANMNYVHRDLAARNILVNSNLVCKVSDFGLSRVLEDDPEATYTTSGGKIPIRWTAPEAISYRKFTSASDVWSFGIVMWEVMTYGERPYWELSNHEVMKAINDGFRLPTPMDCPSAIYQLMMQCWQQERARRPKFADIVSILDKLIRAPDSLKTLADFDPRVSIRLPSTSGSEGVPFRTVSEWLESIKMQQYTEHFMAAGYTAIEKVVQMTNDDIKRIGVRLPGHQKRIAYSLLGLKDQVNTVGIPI
In the next test the target is Abl (Homo sapiens, UniProt P00519). The test is described as follows: Abl kinase assay, IMAP fluorescence polarization. The note with it: 50 or 100 μM ATP; average; read-out: Abl-AVERAGE Ki.
Sequence of Abl (P00519 whole entry): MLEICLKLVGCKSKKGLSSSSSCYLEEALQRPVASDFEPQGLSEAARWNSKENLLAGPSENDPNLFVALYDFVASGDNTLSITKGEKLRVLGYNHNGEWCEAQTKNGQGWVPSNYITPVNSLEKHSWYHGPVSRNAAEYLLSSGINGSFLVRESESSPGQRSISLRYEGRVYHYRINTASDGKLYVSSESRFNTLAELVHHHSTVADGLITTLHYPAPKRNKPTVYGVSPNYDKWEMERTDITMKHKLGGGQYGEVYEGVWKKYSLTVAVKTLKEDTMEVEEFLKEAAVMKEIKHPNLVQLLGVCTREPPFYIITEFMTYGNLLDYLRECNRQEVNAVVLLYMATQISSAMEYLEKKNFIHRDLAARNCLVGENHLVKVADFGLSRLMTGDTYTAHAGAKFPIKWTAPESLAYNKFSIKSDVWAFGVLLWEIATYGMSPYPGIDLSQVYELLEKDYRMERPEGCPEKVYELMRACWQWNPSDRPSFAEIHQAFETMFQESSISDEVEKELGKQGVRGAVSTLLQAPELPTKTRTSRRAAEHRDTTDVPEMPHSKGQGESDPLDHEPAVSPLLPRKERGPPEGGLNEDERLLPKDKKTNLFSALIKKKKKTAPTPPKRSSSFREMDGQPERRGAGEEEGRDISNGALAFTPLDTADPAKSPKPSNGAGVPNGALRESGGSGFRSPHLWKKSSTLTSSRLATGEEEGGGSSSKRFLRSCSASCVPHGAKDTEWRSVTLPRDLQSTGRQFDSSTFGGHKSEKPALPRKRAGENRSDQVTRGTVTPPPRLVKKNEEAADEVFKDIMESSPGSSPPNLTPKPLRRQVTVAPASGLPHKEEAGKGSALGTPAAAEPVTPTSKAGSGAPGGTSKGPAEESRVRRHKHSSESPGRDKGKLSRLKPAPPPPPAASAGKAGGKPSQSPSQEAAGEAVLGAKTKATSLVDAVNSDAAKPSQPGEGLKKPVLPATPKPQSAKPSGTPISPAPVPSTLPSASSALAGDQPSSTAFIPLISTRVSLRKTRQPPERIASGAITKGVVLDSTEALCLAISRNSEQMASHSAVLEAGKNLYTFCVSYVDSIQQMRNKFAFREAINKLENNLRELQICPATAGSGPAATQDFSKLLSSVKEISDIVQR
In another test the target is SIK2 (Homo sapiens, UniProt Q9H0K1). The test is described as follows: SIK2 kinase assay, IMAP fluorescence polarization. The following applies: 50 or 100 μM ATP; average; read-out: SIK2-AVERAGE Ki.
Sequence of SIK2 (Q9H0K1 whole entry): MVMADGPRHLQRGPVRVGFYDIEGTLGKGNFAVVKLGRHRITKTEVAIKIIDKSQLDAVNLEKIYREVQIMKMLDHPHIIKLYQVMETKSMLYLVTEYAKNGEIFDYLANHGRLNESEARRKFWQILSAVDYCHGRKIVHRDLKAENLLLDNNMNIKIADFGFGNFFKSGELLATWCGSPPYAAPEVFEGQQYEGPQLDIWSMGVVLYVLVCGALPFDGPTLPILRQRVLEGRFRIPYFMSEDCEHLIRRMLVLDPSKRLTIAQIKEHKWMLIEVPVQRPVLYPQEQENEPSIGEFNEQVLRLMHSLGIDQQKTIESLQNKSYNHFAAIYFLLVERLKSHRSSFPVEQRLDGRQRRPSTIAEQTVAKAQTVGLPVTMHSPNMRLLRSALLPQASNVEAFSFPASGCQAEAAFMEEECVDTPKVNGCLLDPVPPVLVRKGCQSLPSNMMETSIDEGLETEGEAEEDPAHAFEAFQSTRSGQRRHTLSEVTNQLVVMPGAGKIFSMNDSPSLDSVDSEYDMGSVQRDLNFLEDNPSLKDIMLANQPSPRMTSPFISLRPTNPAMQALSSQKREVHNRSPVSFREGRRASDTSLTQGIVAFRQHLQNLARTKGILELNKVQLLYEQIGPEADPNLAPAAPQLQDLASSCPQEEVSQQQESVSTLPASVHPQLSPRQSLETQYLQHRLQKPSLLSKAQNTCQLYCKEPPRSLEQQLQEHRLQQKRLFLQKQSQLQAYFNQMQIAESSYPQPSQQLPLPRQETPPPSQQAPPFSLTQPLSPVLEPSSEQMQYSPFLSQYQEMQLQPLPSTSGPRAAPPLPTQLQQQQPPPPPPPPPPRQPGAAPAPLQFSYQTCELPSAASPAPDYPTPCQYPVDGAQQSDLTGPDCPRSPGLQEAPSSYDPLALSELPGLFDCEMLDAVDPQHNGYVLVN
In the next test the target is SIK3 (Homo sapiens, UniProt Q9Y2K2). The test is described as follows: SIK3 kinase assay, IMAP fluorescence polarization. The following applies: 50 or 100 μM ATP; average; read-out: SIK3-AVERAGE Ki.
Sequence of SIK3 (Q9Y2K2 whole entry): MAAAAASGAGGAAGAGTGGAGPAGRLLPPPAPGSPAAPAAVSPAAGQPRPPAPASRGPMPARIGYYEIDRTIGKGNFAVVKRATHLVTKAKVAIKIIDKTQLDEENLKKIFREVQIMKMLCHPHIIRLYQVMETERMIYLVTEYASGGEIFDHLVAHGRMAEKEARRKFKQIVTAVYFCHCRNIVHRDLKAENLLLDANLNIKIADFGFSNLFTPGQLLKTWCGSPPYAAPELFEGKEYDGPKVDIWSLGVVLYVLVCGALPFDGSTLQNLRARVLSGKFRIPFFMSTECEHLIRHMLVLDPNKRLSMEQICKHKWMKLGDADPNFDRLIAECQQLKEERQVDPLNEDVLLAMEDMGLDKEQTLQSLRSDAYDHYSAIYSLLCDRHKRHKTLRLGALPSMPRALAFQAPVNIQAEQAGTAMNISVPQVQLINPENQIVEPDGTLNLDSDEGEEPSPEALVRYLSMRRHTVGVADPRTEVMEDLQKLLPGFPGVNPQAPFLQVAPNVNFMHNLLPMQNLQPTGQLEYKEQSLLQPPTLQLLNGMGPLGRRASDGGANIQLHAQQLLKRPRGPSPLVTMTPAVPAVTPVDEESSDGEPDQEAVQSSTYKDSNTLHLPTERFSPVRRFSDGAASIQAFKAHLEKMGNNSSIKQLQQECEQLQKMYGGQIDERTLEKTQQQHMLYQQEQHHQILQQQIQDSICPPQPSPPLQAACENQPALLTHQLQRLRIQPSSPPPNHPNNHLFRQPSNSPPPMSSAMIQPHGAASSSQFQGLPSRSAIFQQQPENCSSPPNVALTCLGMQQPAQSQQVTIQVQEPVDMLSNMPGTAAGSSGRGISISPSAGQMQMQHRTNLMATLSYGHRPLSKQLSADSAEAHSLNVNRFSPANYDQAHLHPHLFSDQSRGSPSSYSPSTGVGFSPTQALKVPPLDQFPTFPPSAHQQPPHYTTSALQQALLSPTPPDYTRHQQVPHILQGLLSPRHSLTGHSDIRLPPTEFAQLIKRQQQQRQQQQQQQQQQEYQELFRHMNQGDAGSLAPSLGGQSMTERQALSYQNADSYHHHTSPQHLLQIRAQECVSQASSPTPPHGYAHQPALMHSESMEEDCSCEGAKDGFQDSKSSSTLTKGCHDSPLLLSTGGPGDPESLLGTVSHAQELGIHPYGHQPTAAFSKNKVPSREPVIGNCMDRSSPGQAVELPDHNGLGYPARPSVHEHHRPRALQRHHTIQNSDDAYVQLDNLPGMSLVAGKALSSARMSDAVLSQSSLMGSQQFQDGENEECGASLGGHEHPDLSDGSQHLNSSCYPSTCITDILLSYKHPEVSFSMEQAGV

SMILES strings stand for the structures. Like-named read-outs stand apart in the source and are kept apart here. Bounds are passed on as bounds.

Sequence of Src (P12931 whole entry): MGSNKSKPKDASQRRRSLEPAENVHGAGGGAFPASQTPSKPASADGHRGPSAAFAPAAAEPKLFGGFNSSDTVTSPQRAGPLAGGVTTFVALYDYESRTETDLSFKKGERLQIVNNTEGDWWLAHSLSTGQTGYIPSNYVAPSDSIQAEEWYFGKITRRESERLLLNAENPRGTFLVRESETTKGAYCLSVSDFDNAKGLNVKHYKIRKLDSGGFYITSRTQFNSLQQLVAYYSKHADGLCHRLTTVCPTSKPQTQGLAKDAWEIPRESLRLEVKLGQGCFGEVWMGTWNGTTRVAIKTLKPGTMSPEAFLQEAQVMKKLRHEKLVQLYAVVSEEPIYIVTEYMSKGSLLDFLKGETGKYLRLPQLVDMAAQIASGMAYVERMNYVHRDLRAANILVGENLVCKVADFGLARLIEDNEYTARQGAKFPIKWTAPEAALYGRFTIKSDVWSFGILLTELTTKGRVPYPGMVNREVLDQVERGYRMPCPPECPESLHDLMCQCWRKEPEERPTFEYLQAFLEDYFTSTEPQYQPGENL

With `Cc1cccc(F)c1N1Cc2cnc(N)nc2N([C@H]2CCCCN(C)C2)C1=O` [Example 36, 7-amino-3-(2-fluoro-6-methyl-phenyl)-1-[(3S)-1-methylazepan-3-yl]-4H-pyrimido[4,5-d]pyrimidin-2-one], the Ki on Src worked out at 138 nM; on SIK1 it was 1.85 nM; at EPHA2 (50 or 100 μM ATP, average), 124 nM; at Abl, 62.1 nM; on SIK2, 0.68 nM; on SIK3, 8.61 nM.
`Cc1cccc(F)c1N1Cc2cnc(N)nc2N([C@H]2CCCN(C)C2)C1=O` [Example 37, 7-amino-3-(2-fluoro-6-methyl-phenyl)-1-[(3S)-1-methyl-3-piperidyl]-4H-pyrimido[4,5-d]pyrimidin-2-one]: the Ki was determined as 80.5 nM on Src; 2.5 nM at SIK1; 25.8 nM at EPHA2 (50 or 100 μM ATP, average); 53.2 nM on Abl; 0.703 nM at SIK2; 6.65 nM on SIK3.
With `Cc1cccc(F)c1N1Cc2cnc(N)nc2N([C@@H]2CCCCN(C)C2)C1=O` [Example 38, 7-amino-3-(2-fluoro-6-methyl-phenyl)-1-[(3R)-1-methylazepan-3-yl]-4H-pyrimido[4,5-d]pyrimidin-2-one], the Ki on Src was 678 nM; on SIK1, 9.57 nM; at EPHA2 (50 or 100 μM ATP, average) it was 188 nM; on Abl, 144 nM; at SIK2 it was 2.7 nM; on SIK3, 46.7 nM.
Regarding `Cc1cccc(F)c1N1Cc2cnc(N)nc2N([C@H]2CC[C@@H](N(C)C)CC2)C1=O` [Example 39, cis-7-amino-1-[4-(dimethylamino)cyclohexyl]-3-(2-fluoro-6-methyl-phenyl)-4H-pyrimido[4,5-d]pyrimidin-2-one], the inhibition constant (Ki) came out at 86 nM on Src; 1.66 nM on SIK1; 35.8 nM at EPHA2 (50 or 100 μM ATP, average); 32.5 nM on Abl; 0.444 nM at SIK2; 3.87 nM at SIK3.
Regarding `CNc1cc2c(cn1)CN(c1c(C)cccc1F)C(=O)N2[C@H]1CC[C@@H](N(C)C)CC1` [Example 40, cis-1-[4-(dimethylamino)cyclohexyl]-3-(2-fluoro-6-methyl-phenyl)-7-(methylamino)-4H-pyrido[4,3-d]pyrimidin-2-one], the Ki at Src was determined as 626 nM; on SIK1 it was 3.93 nM; at EPHA2 (50 or 100 μM ATP, average), 106 nM; on Abl it was 62.7 nM; at SIK2, 1.25 nM; on SIK3, 18.4 nM.
`Cc1cccc(F)c1N1Cc2cnc(N(C)C)cc2N([C@H]2CC[C@@H](N(C)C)CC2)C1=O` [Example 41, cis-7-(dimethylamino)-1-[4-(dimethylamino)cyclohexyl]-3-(2-fluoro-6-methyl-phenyl)-4H-pyrido[4,3-d]pyrimidin-2-one]: the Ki was greater than 10000 nM on Src; 478 nM on SIK1; greater than 10000 nM on EPHA2 (50 or 100 μM ATP, average); greater than 10000 nM on Abl; 102 nM at SIK2; 565 nM on SIK3.
In the case of `Cc1cccc(F)c1N1Cc2cnc(N)nc2N([C@@H]2CCCN(C)C2)C1=O` [Example 42, 7-Amino-3-(2-fluoro-6-methyl-phenyl)-1-[(3R)-1-methyl-3-piperidyl]-4H-pyrimido[4,5-d]pyrimidin-2-one], the Ki was 702 nM on Src; 3.24 nM at SIK1; 66.8 nM at EPHA2 (50 or 100 μM ATP, average); 241 nM at Abl; 1.52 nM at SIK2; 14 nM on SIK3.
As for `Cc1cccc(F)c1N1Cc2cnc(N)nc2N([C@H]2CC[C@H](N(C)C)CC2)C1=O` [Example 45, trans-7-Amino-1-[4-(dimethylamino)cyclohexyl]-3-(2-fluoro-6-methyl-phenyl)-4H-pyrimido[4,5-d]pyrimidin-2-one], the Ki on Src stood at 55.5 nM; on SIK1, 0.749 nM; on EPHA2 (50 or 100 μM ATP, average) it was 34.2 nM; at Abl, 15.7 nM; on SIK2 it was 0.244 nM; at SIK3, 0.992 nM.
`Cc1cccc(F)c1N1Cc2cnc(N)cc2N([C@H]2CC[C@@H](N(C)C)CC2)C1=O` [Example 46, cis-7-Amino-1-[4-(dimethylamino)cyclohexyl]-3-(2-fluoro-6-methyl-phenyl)-4H-pyrido[4,3-d]pyrimidin-2-one]: the Ki on Src turned out to be 163 nM; on SIK1, 0.384 nM; on EPHA2 (50 or 100 μM ATP, average), 84.4 nM; on Abl it was 43 nM; at SIK2, 0.232 nM; at SIK3, 1.19 nM.
Regarding `Cc1cccc(F)c1N1Cc2cnc(N)cc2N([C@@H]2CCNC2)C1=O` [Example 47, 7-Amino-3-(2-fluoro-6-methyl-phenyl)-1-[(3R)-pyrrolidin-3-yl]-4H-pyrido[4,3-d]pyrimidin-2-one], the Ki is greater than 1000 nM on Src; 2.6 nM on SIK1; 247 nM on EPHA2 (50 or 100 μM ATP, average); greater than 1000 nM on Abl; 1.32 nM on SIK2; 16.6 nM on SIK3.
In the case of `Cc1cccc(F)c1N1Cc2cnc(N)cc2N([C@@H]2CCCNC2)C1=O` [Example 48, 7-amino-3-(2-fluoro-6-methyl-phenyl)-1-[(3R)-3-piperidyl]-4H-pyrido[4,3-d]pyrimidin-2-one], the Ki on Src is 132 nM; at SIK1, 1.26 nM; at EPHA2, 68.5 nM; at Abl, greater than 1000 nM; on SIK2, 0.348 nM; on SIK3, 4 nM.
Regarding `Cc1cccc(F)c1N1Cc2cnc(N)cc2N([C@H]2CCCNC2)C1=O` [Example 49, 7-amino-3-(2-fluoro-6-methyl-phenyl)-1-[(3S)-3-piperidyl]-4H-pyrido[4,3-d]pyrimidin-2-one], the Ki at Src was greater than 1000 nM; on SIK1, 0.878 nM; on EPHA2, greater than 1000 nM; on Abl, greater than 1000 nM; at SIK2 it was 0.473 nM; on SIK3, 3.21 nM.
Turning to `Cc1cccc(F)c1N1Cc2cnc(N)cc2N([C@@H]2CCCCNC2)C1=O` [Example 50, 7-amino-3-(2-fluoro-6-methyl-phenyl)-1-[(3R)-azepan-3-yl]-4H-pyrido[4,3-d]pyrimidin-2-one], the Ki on Src amounted to 24.2 nM; on SIK1 it was 0.193 nM; on EPHA2 (50 or 100 μM ATP, average), 13.6 nM; on Abl it was 6.12 nM; on SIK2, 0.152 nM; at SIK3, 1.36 nM.
`Cc1cccc(F)c1N1Cc2cnc(N)cc2N([C@@H]2CCCNCC2)C1=O` [Example 51, 7-amino-3-(2-fluoro-6-methyl-phenyl)-1-[(4R)-azepan-4-yl]-4H-pyrido[4,3-d]pyrimidin-2-one]: the Ki at Src came out at 91.3 nM; at SIK1 it was 0.409 nM; on EPHA2 (50 or 100 μM ATP, average), 31 nM; at Abl it was 10.5 nM; at SIK2, 0.181 nM; on SIK3, 0.82 nM.
Take `Cc1cccc(F)c1N1Cc2cnccc2N([C@H]2CCCCNC2)C1=O` [Example 52, 3-(2-fluoro-6-methyl-phenyl)-1-[(3S)-azepan-3-yl]-4H-pyrido[4,3-d]pyrimidin-2-one]: the Ki was greater than 10000 nM on Src; 42 nM at SIK1; 1520 nM at EPHA2 (50 or 100 μM ATP, average); greater than 10000 nM at Abl; 13.7 nM at SIK2; 288 nM on SIK3.
In the case of `Cc1cccc(F)c1N1Cc2cnc(N)cc2N([C@H]2CCCCNC2)C1=O` [Example 53, 7-amino-1-[(3S)-azepan-3-yl]-3-(2-fluoro-6-methyl-phenyl)-4H-pyrido[4,3-d]pyrimidin-2-one], the Ki at Src came out at 2870 nM; at SIK1, 9.45 nM; at EPHA2 (50 or 100 μM ATP, average) it was 815 nM; at Abl, 517 nM; at SIK2, 2.24 nM; on SIK3 it was 68 nM.
For `Cc1cccc(F)c1N1Cc2cnc(N)cc2N([C@H]2CCCNCC2)C1=O` [Example 54, 7-amino-1-[(4S)-azepan-4-yl]-3-(2-fluoro-6-methyl-phenyl)-4H-pyrido[4,3-d]pyrimidin-2-one], the Ki on Src is 423 nM; on SIK1, 2.08 nM; on EPHA2 (50 or 100 μM ATP, average), 213 nM; at Abl, 64.9 nM; at SIK2 it was 0.719 nM; on SIK3, 4.14 nM.
For the molecule `CNC1CCCC(N2C(=O)N(c3c(C)cccc3F)Cc3cnc(N)cc32)C1` (stereo not drawn) [Example 57, 7-amino-3-(2-fluoro-6-methyl-phenyl)-1-[3-(methylamino)cyclohexyl]-4H-pyrido[4,3-d]pyrimidin-2-one], the Ki worked out at 61.5 nM at Src; 1.1 nM at SIK1; 42.6 nM at EPHA2 (50 or 100 μM ATP, average); 17 nM on Abl; 0.396 nM on SIK2; 3.05 nM at SIK3.
As to `Cc1cccc(F)c1N1Cc2cnc(N)cc2N([C@H]2CC[C@H](N)CC2)C1=O` [Example 58, trans-7-Amino-1-(4-aminocyclohexyl)-3-(2-fluoro-6-methyl-phenyl)-4H-pyrido[4,3-d]pyrimidin-2-one], the Ki on Src was found to be 18.9 nM; on SIK1 it was 0.45 nM; on EPHA2 (50 or 100 μM ATP, average), 46.5 nM; at Abl, 28.8 nM; at SIK2, 0.121 nM; on SIK3, 0.279 nM.
Consider `Cc1cccc(F)c1N1Cc2cnc(N)cc2N([C@H]2CC[C@H](N(C)C)CC2)C1=O` [Example 59, trans-7-Amino-1-[4-(dimethylamino)cyclohexyl]-3-(2-fluoro-6-methyl-phenyl)-4H-pyrido[4,3-d]pyrimidin-2-one], for which the Ki on Src was 29.7 nM; at SIK1 it was 0.292 nM; at EPHA2 (50 or 100 μM ATP, average) it was 123 nM; on Abl, 7.31 nM; on SIK2, 0.1 nM; on SIK3, 0.143 nM.
